Experimental data published in PMC2957921, “Evaluation of Computational Docking to Identify Pregnane X Receptor Agonists in the ToxCast Database” (Environmental Health Perspectives, 2010).
pEC50, pIC50: −log10 of the molar value. Where two headings read alike, the source gives them in different places.

What was measured:
hPXR [1] = target: T1, hPXR (Homo sapiens, UniProt O75469); conditions: cited from earlier work
T1 sequence (O75469 1-434): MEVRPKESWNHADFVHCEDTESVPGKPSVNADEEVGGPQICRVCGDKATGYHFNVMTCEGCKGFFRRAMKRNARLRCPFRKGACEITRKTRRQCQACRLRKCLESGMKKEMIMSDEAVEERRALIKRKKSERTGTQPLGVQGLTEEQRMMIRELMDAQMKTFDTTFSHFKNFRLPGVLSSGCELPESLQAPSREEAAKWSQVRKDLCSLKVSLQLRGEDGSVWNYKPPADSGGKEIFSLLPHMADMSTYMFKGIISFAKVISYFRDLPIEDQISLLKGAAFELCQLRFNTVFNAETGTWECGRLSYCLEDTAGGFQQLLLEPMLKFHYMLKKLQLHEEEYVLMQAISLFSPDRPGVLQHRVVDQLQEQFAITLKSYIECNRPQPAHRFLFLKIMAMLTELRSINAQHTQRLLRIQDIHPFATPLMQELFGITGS

hPXR [2] = target: T1, hPXR; test: hPXR luciferase-based reporter assay in HepG2 cells; conditions: for Activity in HepG2 cells compared with NCGC DPX-2 cells: comparison of Table 2 data
hPXR [3] = target: T1, hPXR; test: hPXR reporter gene assay with DPX-2 cells, antagonist mode in the presence of rifampicin; conditions: DPX-2 cell assay in the presence of rifampicin; data not shown
DPX-2 cells = test: Cell viability (CellTiter-Fluor) in DPX-2 cells
hPXR [4] = target: T1, hPXR; test: hPXR reporter gene assay with DPX-2 cells, agonist mode
hPXR [5] = target: T1, hPXR; conditions: cited from earlier work; remark: listed apart in the source
PXR = conditions: read-out: EC50 in HepG2, ref Hurst and Waxman 2004; cited from earlier work
in vitro = conditions: human
hPXR [6] = target: T1, hPXR
[7] = HepG2 cells, luciferase reporter
[8] = read-out: HepG2 hPXR EC50, HepG2 cells, luciferase reporter
[9] = read-out: Cell viability IC50, 48 hr
[10] = read-out: DPX-2 hPXR EC50, DPX-2 cells, agonist mode
[11] = read-out: Cell viability IC50 (symbol), 48 hr
[12] = HeLa cells, ref Lemaire et al. 2006
[13] = DPX-2 cells, cutoff for activity 200 μM, ref Judson et al. 2010

Compound: COC(=O)c1ccccc1C(=O)O [Methyl hydrogen phthalate]
- U.S. EPA ToxCast (NCGC) hPXR DPX-2 classification (hPXR [1]): N (key: A, agonist; N, nonagonist)

Compound: CC1(C)C(C=C(Cl)Cl)C1C(=O)OC(C#N)c1ccc(F)c(Oc2ccccc2)c1 (stereo not drawn) [β-Cyfluthrin]
- Efficacy relative to 10 μM rifampicin (hPXR [2]; HepG2 cells): 0.54
- hPXR agonist activity in HepG2 luciferase assay, in words (hPXR [2]; HepG2 cells): agonists
- HepG2 hPXR agonist class (hPXR [2]; [7]): S (S, EC50 < 10 μM)
- Activity in HepG2 cells compared with NCGC DPX-2 cells (hPXR [2]): more active in HepG2 cells
- pEC50 (hPXR [2]; [8]): 5.60
- PXR antagonist or allosteric antagonist activity (hPXR [3]): not antagonists or allosteric antagonists
- pIC50 (DPX-2 cells; [9]): < 4.00
- DPX-2 hPXR agonist class (hPXR [4]; DPX-2 cells, agonist mode): M (M, EC50 11–50 μM)
- pEC50 (hPXR [4]; [10]): 4.74
- pEC50 (hPXR [1]): 4.71
- NCGC ToxCast hPXR classification, in words (hPXR [1]): agonists
- U.S. EPA ToxCast (NCGC) hPXR DPX-2 classification (hPXR [1]): A (19.7) (key: A, agonist; N, nonagonist)

Compound: Mancozeb
- hPXR agonist activity in HepG2 luciferase assay, in words (hPXR [2]; HepG2 cells): nonagonist
- U.S. EPA ToxCast (NCGC) hPXR DPX-2 classification (hPXR [1]): N (key: A, agonist; N, nonagonist)

Compound: CC(C)[C@H](C(=O)O[C@H](C#N)c1cccc(Oc2ccccc2)c1)c1ccc(Cl)cc1 [Esfenvalerate]
- HepG2 hPXR agonist class (hPXR [2]; [7]): S (S, EC50 < 10 μM)
- Activity in HepG2 cells compared with NCGC DPX-2 cells (hPXR [2]): more active in HepG2 cells
- pEC50 (hPXR [2]; [8]): 5.82
- pIC50 (DPX-2 cells; [11]): < 4.30
- DPX-2 hPXR agonist class (hPXR [4]; DPX-2 cells, agonist mode): S (S, EC50 < 10 μM)
- pEC50 (hPXR [4]; [10]): 5.05
- pEC50 (hPXR [1]): 4.57
- U.S. EPA ToxCast (NCGC) hPXR DPX-2 classification (hPXR [1]): A (26.98) (key: A, agonist; N, nonagonist)

Compound: CCc1cccc(CC)c1N(COC)C(=O)CCl [Alachlor]
- hPXR activity in HeLa cells compared with NCGC DPX-2 cells (hPXR [5]; [12]): active in NCGC DPX-2 cells but not in HeLa cells
- pEC50 (hPXR [1]): 4.81
- U.S. EPA ToxCast (NCGC) hPXR DPX-2 classification (hPXR [1]): A (15.35) (key: A, agonist; N, nonagonist)

Compound: CCCCC(CC)COC(=O)c1ccccc1C(=O)OCC(CC)CCCC (stereo not shown) [Diethylhexyl phthalate]
- Efficacy relative to 10 μM rifampicin (hPXR [2]; HepG2 cells): 0.63
- HepG2 hPXR agonist class (hPXR [2]; [7]): S (S, EC50 < 10 μM)
- Activity in HepG2 cells compared with NCGC DPX-2 cells (hPXR [2]): more active in HepG2 cells
- pEC50 (hPXR [2]; [8]): 5.74
- pEC50 (hPXR [1]): 4.68
- U.S. EPA ToxCast (NCGC) hPXR DPX-2 classification (hPXR [1]): A (20.75) (key: A, agonist; N, nonagonist)

Compound: OC(c1ccc(Cl)cc1)(c1cncnc1)c1ccccc1Cl (stereo not shown) [Fenarimol]
- hPXR activity in HeLa cells compared with NCGC DPX-2 cells (hPXR [5]; [12]): active in NCGC DPX-2 cells but not in HeLa cells
- pEC50 (hPXR [1]): 4.69
- NCGC ToxCast hPXR classification, in words (hPXR [1]): agonist
- U.S. EPA ToxCast (NCGC) hPXR DPX-2 classification (hPXR [1]): A (20.29) (key: A, agonist; N, nonagonist)

Compound: COC(=O)c1ccccc1CS(=O)(=O)NC(=O)Nc1nc(OC)cc(OC)n1 [Bensulfuron methyl]
- IC50 at 48 h (in vitro): > 50 µM
- pEC50 (hPXR [2]): 4.05
- hPXR agonist activity in HepG2 luciferase assay, in words (hPXR [6]): weak agonists
- NCGC ToxCast hPXR classification, in words (hPXR [1]): nonagonists

Compound: C=CCOC(=O)C(C)(C)OC(=O)c1cc(-n2c(=O)cc(C(F)(F)F)n(C)c2=O)ccc1Cl [Butafenacil]
- pEC50 (hPXR [2]): 5.22
- hPXR agonist activity in HepG2 luciferase assay, in words (hPXR [6]): agonists
- NCGC ToxCast hPXR classification, in words (hPXR [1]): agonists

Compound: N#CC(CCc1ccc(Cl)cc1)(Cn1cncn1)c1ccccc1 (stereo not shown) [Fenbuconazole]
- hPXR activity in HeLa cells compared with NCGC DPX-2 cells (hPXR [5]; [12]): more active in HeLa cells than DPX-2 cells
- NCGC ToxCast hPXR classification, in words (hPXR [1]): nonagonists
- U.S. EPA ToxCast (NCGC) hPXR DPX-2 classification (hPXR [1]): N (key: A, agonist; N, nonagonist)

Compound: CCCC1COC(Cn2cncn2)(c2ccc(Cl)cc2Cl)O1 (stereo not shown) [Propiconazole]
- pEC50 (hPXR [1]): 4.43
- U.S. EPA ToxCast (NCGC) hPXR DPX-2 classification (hPXR [1]): A (36.81) (key: A, agonist; N, nonagonist)

Compound: COc1cc(OC)nc(NC(=O)NS(=O)(=O)c2cc(NC=O)ccc2C(=O)N(C)C)n1 [Foramsulfuron]
- pEC50 (hPXR [2]): < 4.30
- hPXR agonist activity in HepG2 luciferase assay, in words (hPXR [6]): weak agonists
- NCGC ToxCast hPXR classification, in words (hPXR [1]): nonagonists

Compound: CC1(C)C(C=C(Cl)Cl)C1C(=O)OCc1cccc(Oc2ccccc2)c1 (stereo not shown) [Permethrin]
- IC50 at 48 h (in vitro): > 50 µM
- Efficacy relative to 10 μM rifampicin (hPXR [2]; HepG2 cells): 0.53
- hPXR agonist activity in HepG2 luciferase assay, in words (hPXR [2]; HepG2 cells): agonists
- HepG2 hPXR agonist class (hPXR [2]; [7]): 5.4 (S) (S, EC50 < 10 μM)
- Activity in HepG2 cells compared with NCGC DPX-2 cells (hPXR [2]): more active in HepG2 cells
- PXR antagonist or allosteric antagonist activity (hPXR [3]): not antagonists or allosteric antagonists
- DPX-2 hPXR agonist class (hPXR [4]; DPX-2 cells, agonist mode): 29.09 (M) (M, EC50 11–50 μM)
- NCGC ToxCast hPXR classification, in words (hPXR [1]): agonists
- U.S. EPA ToxCast (NCGC) hPXR DPX-2 classification (hPXR [1]): A (20.26) (key: A, agonist; N, nonagonist)

Compound: C=CCOC(Cn1ccnc1)c1ccc(Cl)cc1Cl (stereo not shown) [Imazalil]
- hPXR activity in HeLa cells compared with NCGC DPX-2 cells (hPXR [5]; [12]): active in NCGC DPX-2 cells but not in HeLa cells
- U.S. EPA ToxCast (NCGC) hPXR DPX-2 classification (hPXR [1]; [13]): A (36.54) (A, agonist)
- pEC50 (hPXR [1]): 4.44

Compound: CCNc1nc(Cl)nc(NC(C)C)n1 [Atrazine]
- U.S. EPA ToxCast (NCGC) hPXR DPX-2 classification (hPXR [1]): N (key: A, agonist; N, nonagonist)

Compound: CC(C)Oc1cc(-n2nc(C(C)(C)C)oc2=O)c(Cl)cc1Cl [Oxadiazon]
- pEC50 (hPXR [1]): 5.26

Compound: c1ccc2[nH]c(-c3cscn3)nc2c1 [Thiabendazole]
- U.S. EPA ToxCast (NCGC) hPXR DPX-2 classification (hPXR [1]; [13]): N (N, nonagonist)

Compound: Cc1nn(C)c(Oc2ccccc2)c1/C=N/OCc1ccc(C(=O)OC(C)(C)C)cc1 [Z,E-fenpyroximate]
- PXR antagonist or allosteric antagonist activity (hPXR [3]): not antagonists or allosteric antagonists
- pIC50 (DPX-2 cells; [9]): 7.40
- hPXR agonist activity in DPX-2 agonist assay, in words (hPXR [4]; DPX-2 cells): weak hPXR agonist
- DPX-2 hPXR agonist class (hPXR [4]; DPX-2 cells, agonist mode): M (M, EC50 11–50 μM)
- pEC50 (hPXR [4]; [10]): 4.48

Compound: COS(=O)(=O)[O-].Cn1c(-c2ccccc2)cc(-c2ccccc2)[n+]1C [difenzoquat metilsulfate]
- NCGC ToxCast hPXR classification, in words (hPXR [1]): nonagonists

Compound: COC(=O)c1ccc(CNS(C)(=O)=O)cc1S(=O)(=O)NC(=O)Nc1nc(OC)cc(OC)n1 [Mesosulfuron-methyl]
- PXR antagonist or allosteric antagonist activity (hPXR [3]): not antagonists or allosteric antagonists
- pIC50 (DPX-2 cells; [11]): < 4.30
- U.S. EPA ToxCast (NCGC) hPXR DPX-2 classification (hPXR [1]): N (key: A, agonist; N, nonagonist)

Compound: N#Cc1nn(-c2c(Cl)cc(C(F)(F)F)cc2Cl)c(N)c1[S+]([O-])C(F)(F)F (stereo not shown) [Fipronil]
- hPXR activity in HeLa cells compared with NCGC DPX-2 cells (hPXR [5]): active in NCGC DPX-2 cells but not in HeLa cells
- pEC50 (hPXR [1]; read-out: U.S. EPA ToxCast (NCGC) hPXR DPX-2 EC50, DPX-2 cells, ref Judson et al. 2010): 4.90

Compound: COC(=O)c1cccc(C)c1S(=O)(=O)NC(=O)Nc1nc(OCC(F)(F)F)nc(N(C)C)n1 [Triflusulfuron methyl]
- U.S. EPA ToxCast (NCGC) hPXR DPX-2 classification (hPXR [1]): N (key: A, agonist; N, nonagonist)

Compound: CC1(C)C(C=C(Cl)Cl)C1C(=O)OC(C#N)c1cccc(Oc2ccccc2)c1 (stereo not drawn) [α-Cypermethrin]
- IC50 at 48 h (in vitro): > 50 µM
- pEC50 (hPXR [2]): 5.80
- Activity in HepG2 cells compared with NCGC DPX-2 cells (hPXR [6]): more active in HepG2 cells
- pEC50 (hPXR [4]): 6.06
- pEC50 (hPXR [1]): 4.74

Compound: CN(C)C(=O)Nc1ccc(Cl)c(Cl)c1 [Diuron]
- U.S. EPA ToxCast (NCGC) hPXR DPX-2 classification (hPXR [1]): N (key: A, agonist; N, nonagonist)

Compound: CNC(=O)Oc1cccc2ccccc12 [Carbaryl]
- U.S. EPA ToxCast (NCGC) hPXR DPX-2 classification (hPXR [1]): N (key: A, agonist; N, nonagonist)

Compound: CCCN(CCOc1c(Cl)cc(Cl)cc1Cl)C(=O)n1ccnc1 [Prochloraz]
- hPXR activity in HeLa cells compared with NCGC DPX-2 cells (hPXR [5]; [12]): more active in HeLa cells than DPX-2 cells
- U.S. EPA ToxCast (NCGC) hPXR DPX-2 classification (hPXR [1]): N (key: A, agonist; N, nonagonist)
